# Results as given in US8685976B2, “Cell adhesion promoting agent and method of promoting cell adhesion” (Kyoto University, priority 2008, dated 2014).
# Tests used:
# [1] = tested on: extracellular signal-regulated kinase (ERK); assay: Western blotting, ERK activation; format: cell-based, human; conditions: Jurkat, 6 μM
# Procedure: (§1) Jurkat cells were treated with adhesamine (6 μM) in a serum-poor culture medium (0.1% FBS) for the indicated periods of time. The treated cell lysates were Western blotted with antibodies against FAK phospho-tyrosine^397 (pFAK), FAK, ERK1/2 phospho-threonine^202/tyrosine^204 (pERK) or ERK. In (B), Jurkat cells were incubated for 5 hours with varied concentrations of adhesamine or poly-L-lysine. The cell lysates were Western blotted with antibodies against FAK phospho-tyrosine^397 or FAK. […] The concentration of adhesamine (1) was 6 μM.
# Jurkat cells were maintained in an RPMI medium containing 10% FBS. 5-6 million Jurkat cells were dispensed to a well of a 6-well plate in a final volume of 2 mL, and then incubated at 37° C. for 0-5 hours in the presence of adhesamine or poly-L-lysine. Non-adherent cells were removed and pelleted, and the remaining adherent cells were lysed in a 125 mM Tris-HCl buffer (pH 6.8) containing 4% SDS, 10% glycerol, 0.006% bromophenol blue, and 1.8% β-mercaptoethanol. The adherent cell homogenate was combined with pelleted nonadherent cells from the same well, and the combined sample was boiled for 5 minutes. The samples were separated by SDS-PAGE and electroblotted onto a nitrocellulose membrane. The membranes were blocked in 1% BSA and incubated with primary antibody, and then with horseradish peroxidase-conjugated secondary antibody. […]
# HepG2 cells [2] = assay: Visualization of actin cytoskeleton with rhodamine-conjugated phalloidin, HepG2; format: cell-based; conditions: HepG2, 6 μM
# Procedure: (§2) In (A) and (B), the cell growth was determined at 24, 48, and 72 hours after the addition of adhesamine (1) (6 μM). The cell growth in the presence of 1% (v/v) DMSO was assigned a value of 100%. The data shown are means±SD for a minimum of three experiments. (C) to (F) show the rearrangement of actin filaments in HepG2 and Jurkat cells in the presence of adhesamine (6 μM). Brightfield images (C and D) and confocal images (E and F) are shown. HepG2 (C and E) or Jurkat (D and F) cells were plated for 5 hours or 3 hours, respectively, and actin cytoskeletal was visualized using rhodamine-labeled phalloidin.
# Jurkat or HepG2 cells were plated onto glass coverslips in the presence of adhesamine (6 μM). They were fixed after 5 or 3 hours, respectively, with 4% paraformaldehyde for 20 minutes. The cell membrane was permeabilized by 5-min treatment with 0.1% Triton X-100 (in PBS). Samples were washed twice with PBS, and actin cytoskeleton was visualized with rhodamine-conjugated phalloidin according to the manufacturer's instructions (Invitrogen). The cell images were captured with a Yokogawa CSU22 confocal fluorescence microscope with 588-nm laser excitation.
# Jurkat cells [3] = assay: Cell adhesion assay by addition, Jurkat cells; format: cell-based, human
# Procedure: 1 μL each of an aqueous solution of adhesamine (1), Type I collagen, poly-L-lysine hydrochloride, poly-L-ornithine hydrobromide, and fibronectin at a concentration of 50, 500, and 5000 μg/ml, was added to 96-well plate. 100 μL of HepG2 suspension (4×10^5 cells/mL) was added to each well. After 3-hour incubation at 37° C., non-adherent cells were removed by washing each well with PBS three times, and the attached cells were counted with a Neubauer counting chamber (Digital Bio). For Jurkat cells, 100 μL of cell suspension was added to each well at a density of 1×10^6 cells/ml. After 5-hour incubation at 37° C., non-adhered cells were removed by washing each well with PBS twice, and the attached cells were counted with a Neubauer counting chamber (Digital Bio). To calculate adhesion rates, firstly seeded cell numbers were assigned a value of 100%. As control tests, the same tests were conducted using wells supplied with only 1 μL of DMSO. Each assay was conducted in triplicate, and the means and standard derivations were calculated.
# The comparison between adhesamine and its derivatives regarding cell adhesion promotion activity was conducted using Jurkat cells by way of reagent addition assay. 1 μL each of DMSO solutions of the compounds having concentrations of 60, 600, and 6000 μM were added to 96-well plates. The wells were supplied with 100 μL each of Jurkat cell suspensions (1×10^6 cells/mL). After 5-hour incubation at 37° C., non-adhered cells were removed by washing each well with PBS twice, and the attached cells were counted with a Neubauer counting chamber (Digital Bio). To calculate adhesion rates, firstly seeded cell numbers were assigned a value of 100%. As control tests, the same tests were conducted using well plates supplied with only 1 μL of DMSO. Each assay was conducted in triplicate, and the means and standard derivations were calculated.
# However, since HepG2 cells have an intrinsic propensity to adhere to plastic tissue-culture plates, a test was conducted to determine whether the same effect was also obtained in the Jurkat cell line and human T-lymphocytes that are floating cells. Remarkably, 30% and 60% of the Jurkat cells attached to a culture plate in the presence of 6 and 60 μM of adhesamine, respectively (FIG. 1D). Removal of adhesamine by washing the plate twice with PBS detached the cells. 93% of Jurkat cells were released from the surface of a culture plate 24 hour after washing (FIG. 2). […] Simply adding adhesamine to the medium promoted adhesion of Jurkat cells onto culture plates, but not to each other.
# HepG2 cells [4] = assay: Cell growth assay (WST-8), HepG2; format: cell-based
# Procedure: as §2
# 1 μL DMSO solution of adhesamine (1) was added to 96-well plate at a concentration of 600 μM. […] After incubation for indicated time, the cell viability was measured using Cell Counting Kit-8 (Dojindo Molecular Technologies, Inc., Gaithersburg, Md.), which contains a tetrazolium salt (WST-8) that produces a water-soluble formazan dye by NADH dehydrogenases in living cells. […] The optical density (OD) of the solution was read by a microplate reader, using a test wavelength at 450 nm and a reference wavelength at 650 nm. […] Each assay was conducted in triplicate, and the means and standard derivations were calculated for a minimum of three independent experiments.
# Jurkat cells [5] = assay: Cell adhesion assay by coating; format: cell-based, human; conditions: 50 μg/well
# Procedure: The surface area per well is 0.3 cm^2.
# The assay samples (adhesamine (1), Type I collagen, poly-L-lysine hydrochloride, poly-L-ornithine hydrobromide, and fibronectin) were adjusted in concentration by being diluted with 10 mM PBS containing 1% DMSO. […] Thereafter, the wells were washed with Milli-Q water twice. 100 μL of Jurkat cell suspension (1×10^6 cells/mL) was added to each of coated wells. After 5-hour incubation at 37° C., non-adhered cells were removed by washing each well with PBS twice, and attached cells were counted with a Neubauer counting chamber (Digital Bio).
# [6] = tested on: focal adhesion kinase (FAK); assay: Western blotting, FAK activation; format: cell-based, human; conditions: Jurkat
# Procedure: as §1
# Jurkat cells were maintained in an RPMI medium containing 10% FBS. 5-6 million Jurkat cells were dispensed to a well of a 6-well plate in a final volume of 2 mL, and then incubated at 37° C. for 0-5 hours in the presence of adhesamine or poly-L-lysine. Non-adherent cells were removed and pelleted, and the remaining adherent cells were lysed in a 125 mM Tris-HCl buffer (pH 6.8) containing 4% SDS, 10% glycerol, 0.006% bromophenol blue, and 1.8% β-mercaptoethanol. The adherent cell homogenate was combined with pelleted nonadherent cells from the same well, and the combined sample was boiled for 5 minutes. The samples were separated by SDS-PAGE and electroblotted onto a nitrocellulose membrane. The membranes were blocked in 1% BSA and incubated with primary antibody, and then with horseradish peroxidase-conjugated secondary antibody. The blots were developed using the enhanced chemiluminescence technique.
smiles,measurement,setting,value
CSc1nc(Cl)c(C=O)c(N2CC[N+]3(CC2)CC[N+]2(CCN(c4nc(SC)nc(Cl)c4C=O)CC2)CC3)n1 [adhesamine],time after incubation at which ERK was phosphorylated,[1],5 h
same,actin cytoskeleton structure in adhered cells,HepG2 cells [2],Actin filament bundles ran in parallel to the cell axis or through cell processes
same,Jurkat cells attached to a culture plate,Jurkat cells [3]; 6 μM in medium,30%
same,Jurkat cells attached to a culture plate,Jurkat cells [3]; 60 μM in medium,60%
same,"cell attachment on addition to the medium, compared with coating reagents",Jurkat cells [3]; FIG. 12,significantly greater attachment than addition of the other coating reagents
same,cell-cell adhesion,Jurkat cells [3]; added to the medium,did not induce
same,cytotoxicity,"HepG2 cells [4]; HepG2, 6 μM",no obvious cytotoxicity
same,growth of the cells,"HepG2 cells [4]; HepG2, 6 μM, 24, 48, 72 hours, vs 1% DMSO",slightly enhanced
same,"cell attachment when applied as coating, compared with coating reagents",Jurkat cells [5],"greater effect than fibronectin, poly-L-lysine, and poly-L-ornithine"
same,time after stimulation at which FAK phosphorylation was demonstrated,"[6]; 6 μM, serum-poor medium",5 h
same,concentration sufficient to phosphorylate FAK,[6]; 5 hours,5 µg/mL
